Holding throughout (assay type): functional
For test [1], the system named is Saccharomyces cerevisiae. Put plainly: DNA damaging activity against RAD52 DNA repair gene deficient Saccharomyces cerevisiae mutant assessed as drug level required to produce 12 mm zone of inhibition assessed per 100 uL after 48 hrs.
Test [2] has as its system Saccharomyces cerevisiae. Put plainly: DNA damaging activity against RAD52 DNA repair gene/topoisomerase 1 deficient Saccharomyces cerevisiae GAL4:RAD52 mutant assessed as drug level required to produce 12 mm zone of inhibition assessed per 100 uL in glucose medium after 48 hrs.
The subject of test [3] is Saccharomyces cerevisiae. As to the kind of experiment: DNA damaging activity against RAD52 DNA repair gene/topoisomerase 1 deficient Saccharomyces cerevisiae GAL4:RAD52 mutant assessed as drug level required to produce 12 mm zone of inhibition assessed per 100 uL in galactose medium after 48 hrs.
Test [4] relates to Saccharomyces cerevisiae. Put plainly: DNA damaging activity against wild-type Saccharomyces cerevisiae assessed as drug level required to produce 12 mm zone of inhibition assessed per 100 uL after 48 hrs.

SMILES strings stand for the structures. Some results are limits rather than exact numbers.

Regarding `COC1=C(N)C(=O)c2nc(-c3nc(C(=O)O)c(C)c(-c4ccc(OC)c(OC)c4O)c3N)ccc2C1=O` [STREPTONIGRIN], the Activity is 0.012 µg in the test on Saccharomyces cerevisiae [1], 0.009 µg in the test on Saccharomyces cerevisiae [2], over 0.1 µg with Saccharomyces cerevisiae [3] and over 0.1 µg in the test on Saccharomyces cerevisiae [4].

With `CO[C@H]1C[C@@H]2CC[C@@H](C)[C@@](O)(O2)C(=O)C(=O)N2CCCC[C@H]2C(=O)O[C@H]([C@H](C)C[C@@H]2CC[C@@H](O)[C@H](OC)C2)CC(=O)[C@H](C)/C=C(\C)[C@@H](O)[C@@H](OC)C(=O)[C@H](C)C[C@H](C)/C=C/C=C/C=C/1C` [SIROLIMUS], the Activity came out at 0.00057 µg in the test on Saccharomyces cerevisiae [1], 0.00044 µg in the test with Saccharomyces cerevisiae [2], 0.00074 µg with Saccharomyces cerevisiae [3] and 0.00043 µg in the test on Saccharomyces cerevisiae [4].

With `COc1cc(NS(C)(=O)=O)ccc1Nc1c2ccccc2nc2ccccc12` [AMSACRINE], the Activity in the test with Saccharomyces cerevisiae [1] is 8.2 µg; with Saccharomyces cerevisiae [2], 2.7 µg; with Saccharomyces cerevisiae [3] it was over 20 µg; in the test on Saccharomyces cerevisiae [4] it was over 20 µg.

As for `CCCC/C=C/C=C/CCCCC[C@@H]1C[C@@H](O)[C@@H](N)CN1` [PSEUDODISTOMIN B], the Activity with Saccharomyces cerevisiae [1] was determined as 1.8 µg; with Saccharomyces cerevisiae [2] it was 1.5 µg; with Saccharomyces cerevisiae [3], 1.5 µg; in the test on Saccharomyces cerevisiae [4] it was 13 µg.

For `CCCC/C=C/C=C/CCC/C=C/C=C/[C@@H]1C[C@H](O)[C@H](N)CN1` [PSEUDODISTOMIN C], the Activity in the test with Saccharomyces cerevisiae [1] turned out to be 20 µg; in the test on Saccharomyces cerevisiae [2], 12 µg; in the test with Saccharomyces cerevisiae [3] it was 13 µg; with Saccharomyces cerevisiae [4], 38 µg.

As to `CCCC/C=C/C=C/CCCCC[C@@H]1C[C@H](O)[C@H](N)CN1` [PSEUDODISTOMIN E], the Activity in the test on Saccharomyces cerevisiae [1] worked out at 4.3 µg; in the test with Saccharomyces cerevisiae [2], 1.8 µg; in the test with Saccharomyces cerevisiae [3] it was 2.3 µg; in the test on Saccharomyces cerevisiae [4], 12 µg.

Take `CCCC/C=C/C=C/CCCCC[C@@H]1C[C@H](O)[C@@H](N)CN1` [PSEUDODISTOMIN D]: the Activity in the test on Saccharomyces cerevisiae [1] worked out at 3.8 µg; with Saccharomyces cerevisiae [2] it was 1.9 µg; in the test on Saccharomyces cerevisiae [3], 2 µg; with Saccharomyces cerevisiae [4], 11 µg.

`CCCC/C=C/C=C/CCC/C=C/C=C/[C@@H]1C[C@@H](O)[C@@H](N)CN1` [PSEUDODISTOMIN F]: the Activity in the test on Saccharomyces cerevisiae [1] turned out to be 9 µg; in the test with Saccharomyces cerevisiae [2], 3.1 µg; in the test on Saccharomyces cerevisiae [3], 3.3 µg; with Saccharomyces cerevisiae [4] it was 20 µg.

These data come from ChEMBL document CHEMBL1158328, “Three new pseudodistomins, piperidine alkaloids from the ascidian Pseudodistoma megalarva” (1997).
